Key:
[1] = tested on: 2 year old Eucalyptus dunni trees; assay: Field trial, effect of psyllid control on growth of E. dunni (tree height, diameter, wood volume); format: in vivo; conditions: for Mean increase in tree height: 0-303 DAT
Excerpt: (§1) Near Casino, northern New South Wales, Australia in the 2006-2007 season, chlothianidin as a suspension (200 g/L) in water at 0.5, 1.0 and 1.5 grams of active ingredient per tree (gai/tree) was applied to 2 year old Eucalyptus dunni trees for the control of psyllids Creiis lituratus during winter and chrysomelid leaf beetles during summer.
(§2) A single application below the soil surface was made by coulter 20-40 cm from the base of the stem of the trees and to a depth of 10-15 cm in 128 L of water per hectare. Psyllid lerp counts were taken 141 and 303 DAT (days after treatment). Tree height was measured at treatment and then at 303 DAT. Diameter at breast height was measured at 303 DAT.
The difference in volume between the untreated and the 1 gai/tree treatment can be calculated over 303 days

[2] = tested on: psyllids Creiis lituratus; assay: Field trial, subsurface application for the control of psyllids (lerp counts) on Eucalyptus dunni; format: in vivo; conditions: for Mean lerp count per 5 terminal leaflets: subsurface application
Excerpt: as §1, §2

CN/C(=N\[N+](=O)[O-])NCc1cnc(Cl)s1 [Clothianidin, clothianidin]
Mean increase in tree height ([1]; 0.5 gai/tree): 198 ab cm
DBM (diameter at breast height, 1.3 m above ground level) ([1]; 0.5 gai/tree, 303 DAT): 5.44 cm
Mean tree height ([1]; 0.5 gai/tree, 303 DAT): 500 bc cm
Mean increase in tree height ([1]; 1 gai/tree): 228 a cm
DBM (diameter at breast height, 1.3 m above ground level) ([1]; 1 gai/tree, 303 DAT): 5.91 cm
Mean tree height ([1]; 1 gai/tree, 303 DAT): 526 b cm
Increase in wood volume ([1]; 1 gai/tree, 303 DAT, versus untreated): 8.5 m^3/ha
Mean tree diameter ([1]; 1 gai/tree, over 303 days): 5.91 cm
Mean tree height ([1]; 1 gai/tree, over 303 days): 5.26 m
Mean wood vol/ha ([1]; 1 gai/tree, over 303 days): 22.2 m^3
Mean increase in tree height ([1]; 1.5 gai/tree): 229 a cm
DBM (diameter at breast height, 1.3 m above ground level) ([1]; 1.5 gai/tree, 303 DAT): 6.67 cm
Mean tree height ([1]; 1.5 gai/tree, 303 DAT): 594 a cm
growth of E. dunni ([1]; sub-surface application at 0.5 to 1.5 gai/tree, high psyllid pressure, up to 303 DAT): improved
Mean lerp count per 5 terminal leaflets ([2]; 0.5 gai/tree, Mar. 19, 2007 (303 DAT)): 3.50 B
Mean lerp count per 5 terminal leaflets ([2]; 0.5 gai/tree, Oct. 7, 2006 (141 DAT)): 2.33 b
Mean lerp count per 5 terminal leaflets ([2]; 1 gai/tree, Mar. 19, 2007 (303 DAT)): 2.06 B
Mean lerp count per 5 terminal leaflets ([2]; 1 gai/tree, Oct. 7, 2006 (141 DAT)): 0.71 c
Mean lerp count per 5 terminal leaflets ([2]; 1.5 gai/tree, Mar. 19, 2007 (303 DAT)): 0.69 B
Mean lerp count per 5 terminal leaflets ([2]; 1.5 gai/tree, Oct. 7, 2006 (141 DAT)): 0.58 c
psyllid lerp counts ([2]; sub-surface application at 0.5 to 1.5 gai/tree, up to 303 DAT): significantly reduced
